Experiment [1] has as its system proMMP-9 production by human TNFα stimulated THP-1 cell. As to the kind of experiment: Action of human TNFα stimulated THP-1 cell on proMMP-9 production (ELISA of culture supernatant). In kind it is cell-based. The conditions noted are these: THP-1 cells, human TNFα 10 ng/mL, 24 hr; IC50 from 10, 100 and 1,000 nmol/L; read-out: Experimental Example 1 proMMP-9 production suppression (IC50). As for the experimental part:
Action of Human TNFα Stimulated THP-1 Cell on proMMP-9 Production
THP-1 cell (human monocytic leukemia cell line) was adjusted to 1×10^7 cells/mL in a culture medium (10% fetal bovine serum/RPMI1640 medium), and dispensed to a 96 well multiplate. This was equilibrated under the conditions of 37° C./5% CO2, and a culture medium containing human TNFα (final concentration 10 ng/mL) and a test compound was added thereto. After incubation under the conditions of 37° C./5% CO2 for 24 hr, the culture medium was centrifugated and the culture supernatant was collected, which was subjected to the following measurement.
Quantification of proMMP-9 in Culture Supernatant
The proMMP-9 concentration of the collected culture supernatant was quantified using a commercially available measurement reagent (manufactured by GE Healthcare, MMP-9, Human, Biotrak ELISA System).
Calculation of proMMP-9 Suppression Rate
The proMMP-9 suppression rate of the test compound was calculated from the following formula: % suppression=100−((Test−Min)/(Max−Min)×100) wherein Max is proMMP-9 concentration of culture supernatant induced by stimulation with human TNFα, without addition of a test compound (added with solvent alone) • Min is proMMP-9 concentration of culture supernatant without addition of a test compound (added with solvent alone) and without stimulation with human TNFα, and • Test is proMMP-9 concentration of culture supernatant induced by stimulation with human TNFα when a test compound is added.
Furthermore, the concentration of the test compound necessary for suppressing proMMP-9 production by human TNFα stimulated THP-1 cell by 50% (IC50 value) was calculated from 3 points of proMMP-9 suppression rate at test compound concentrations of 10, 100 and 1,000 nmol/L.

For experiment [2], the system named is proMMP-2 production by THP-1 cell. The experiment can be described thus: Action of THP-1 cell on hemostatic type proMMP-2 production (ELISA of culture supernatant). In kind it is cell-based, human. Particulars: THP-1 cells, 24 hr. How it is done:
Action of THP-1 Cell on Hemostatic Type proMMP-2 Production
THP-1 cell (human monocytic leukemia cell line) was adjusted to 1×10^7 cells/mL in a culture medium (10% fetal bovine serum/RPMI1640 medium), and dispensed to a 96 well multiplate. This was equilibrated under the conditions of 37° C./5% CO2, and a culture medium containing a test compound was added thereto. After incubation under the conditions of 37° C./5% CO2 for 24 hr, the culture medium was centrifugated and the culture supernatant was collected, which was subjected to the following measurement.
Quantification of proMMP-2 in Culture Supernatant
The proMMP-2 concentration of the collected culture supernatant was quantified using a commercially available measurement reagent (manufactured by GE Healthcare, MMP-2, Human, Biotrak ELISA System).
Calculation of proMMP-2 Suppression Rate
The proMMP-2 suppression rate of the test compound was calculated from the following formula: % suppress=100−((Test/Cont)×100). wherein Cont is proMMP-2 concentration of culture supernatant without addition of a test compound (added with solvent alone) and Test is proMMP-2 concentration of culture supernatant with addition of a test compound.
(In general: In an ELISA, binding on a coated surface is turned into a signal by an enzyme label.)

The subject of experiment [3] is rat dinitrobenzene-induced colitis model. The experiment can be described thus: Suppressive action on large intestine weight increase of rat dinitrobenzene-induced colitis model. Particulars: Wistar rat, 30 mg/kg oral once a day to day 7, measured day 8. In kind it is in vivo. How it is done: Suppressive Action on Large Intestine Weight Increase of Rat Dinitrobenzene-Induced Colitis Model
A dinitrobenzene solution (30 mg/0.1 mL) was injected into the large intestine of anesthetized rats (Wistar, male, 6-week-old). A test compound was orally administered once a day from the previous day of the dinitrobenzene injection to day 7 at a dose of 30 mg/kg. On day 8, the large intestine was isolated from euthanized rats, and the wet weight thereof was measured. The large intestine weight was amended to the weight per 100 g body weight of the rats on day 8.

Experiment [4] deals with rat monoiodoacetic acid-induced osteoarthritis model. The experiment can be described thus: Suppressive action on articular joints injury of rat monoiodoacetic acid-induced osteoarthritis model. In kind it is in vivo. The conditions noted are these: LEW rat. As for the experimental part: Suppressive Action on Articular Joints Injury of Rat Monoiodoacetic Acid-Induced Osteoarthritis Model
Monoiodoacetic acid solution (0.3 mg/25 μL) was injected into the right hindpaw knee joint cavity of anesthetized rats (LEW, male, 7-week-old). […] On day 7, right hindpaw knee joint was taken from euthanized rats, and fixed with 10% neutral formalin solution. A pathology specimen of knee joint was prepared, stained with Hematoxylin Eosin and Safranine O, and the state of joint cartilage injury was scored under microscopic observation. For articular joint injury scores, changes in each pathological finding in medial condyle of femur and medial condyle of tibia (cartilage surface tuberosity, erosion/ulcer/fibrillation, chondrocyte disorganization/disappearance/hypertrophy, reduction of Safranine staining) were divided into mild, moderate and severe according to the method of Kobayashi et al. (Kobayashi K et al. J. Vet. Med. Sci. 65, 1195 1199 2003), and indicated in the scores of 1, 2 and 3 and totaled. Furthermore, an average of the score of medial condyle of femur and that of medial condyle of tibia was determined and used as an articular joint injury score.

The test system of experiment [5] is rat adjuvant induced arthritis model. The experiment can be described thus: Suppressive action on hindpaw edema of rat adjuvant induced arthritis model. Particulars: LEW rat, difference of hindpaw volume day 15 vs day 21, in mL (unit assumed). It counts as in vivo. As for the experimental part: Suppressive Action on Hindpaw Edema of Rat Adjuvant Induced Arthritis Model
Anesthetized rats (LEW, male, 6-week-old) were immunized with M. Butyricum (5 mg/mL) at a dose of 0.1 mL/body by subcutaneous administration from the tail root. […] The test compound was orally administered once a day from immediately after allocation on day 15 to day 20 at doses of 3 and 30 mg/kg, and the hindpaw volume was measured again on day 21. The amount of hindpaw edema was the difference in the amount between hindpaw volume on day 15 and that on day 21.

Setting [6] is: 3 mg/kg oral once a day to day 6, scored day 7.
Setting [7] is: 10 mg/kg oral once a day to day 6, scored day 7.

The term IC50 denotes the point on the concentration scale where inhibition reaches its midpoint.

Regarding `Cc1ccc(N2CCN(C(=O)c3c(F)cc(N4CCOC4=O)cc3F)CC2)c(C)c1` [Example 1, 3-{4-[4-(2,4-dimethylphenyl)piperazine-1-carbonyl]-3,5-difluorophenyl}oxazolidin-2-one], in experiment [1], the 50% inhibitory concentration (IC50) is 44 nM. Further, in experiment [2], the “Experimental Example 2 proMMP-2 production suppression (% suppression, 10 μM)” value is listed as 17.4%.
In the same order, the values of `Cc1ccc(N2CCN(C(=O)c3ccc(N4CCOC4=O)cc3C)CC2)c(C)c1` [Example 6, 3-{4-[4-(2,4-dimethylphenyl)piperazine-1-carbonyl]-3-methylphenyl}oxazolidin-2-one] are 59 nM and 12.6%.
For the compound `Cc1ccc(N2CCN(C(=O)c3ccc(N4CCOC4=O)cc3)CC2)c(C)c1` [Example 8, 3-{4-[4-(2,4-dimethylphenyl)piperazine-1-carbonyl]phenyl}oxazolidin-2-one], the “large intestine weight (g/100 g body weight)” value in experiment [3] is 0.457 ± 0.031 g/100 g body weight. For the same compound, in experiment [4] (setting [6]), the “articular joint injury score of compound administration group” value (“articular joint injury score” below) turned out to be 4.4 ± 0.5. The hindpaw edema volume in experiment [5] (3 mg/kg oral once a day day 15 to day 20) turned out to be 0.27 ± 0.17; in experiment [5] (30 mg/kg oral once a day day 15 to day 20), 0.20 ± 0.18. For the same compound, the IC50 in experiment [1] is 48 nM. Also, the “Experimental Example 2 proMMP-2 production suppression (% suppression, 10 μM)” value in experiment [2] is listed as 11.6%.
In the case of `Cc1ccc(N2CCN(C(=O)c3ccc(N4CCOC4=O)cc3S(C)(=O)=O)CC2)c(C)c1` [Example 11, 3-{4-[4-(2,4-dimethylphenyl)piperazine-1-carbonyl]-3-methanesulfonylphenyl}oxazolidin-2-one], the half-inhibitory concentration (IC50) in experiment [1] was found to be 40 nM. The “Experimental Example 2 proMMP-2 production suppression (% suppression, 10 μM)” value in experiment [2] is on record as 12.4%.
The like results for `Cc1ccc(N2CCN(C(=O)c3ccc(N4C(=O)OC[C@H]4CO)cc3S(C)(=O)=O)CC2)c(C)c1` [Example 19, (R)-3-{4-[4-(2,4-dimethylphenyl)piperazine-1-carbonyl]-3-methanesulfonylphenyl}-4-hydroxymethyloxazolidin-2-one] were, in that order, 11 nM and 22.5%.
On to `Cc1ccc(C(=O)C2CCN(C(=O)c3ccc(N4CCOC4=O)nc3)CC2)cc1` [Example 42, 3-{5-[4-(4-methylbenzoyl)piperidine-1-carbonyl]pyridin-2-yl}oxazolidin-2-one], for which the “articular joint injury score” value in experiment [4] (setting [7]) is reported as 3.8 ± 0.7.
Turning to `Cc1cnc(N2CCN(C(=O)c3ccc(N4C(=O)OC[C@H]4C)cc3S(C)(=O)=O)CC2)c(C)c1` [Example 81, (R)-3-{4-[4-(3,5-dimethylpyridin-2-yl)piperazine-1-carbonyl]-3-methanesulfonylphenyl}-4-methyloxazolidin-2-one], the “articular joint injury score” value in experiment [4] (setting [7]) was 4.4 ± 0.4.
Consider `Cc1cnc(N2CCN(C(=O)c3ccc(N4C(=O)OC[C@H]4C)nc3)CC2)c(C)c1.Cl.Cl` [Example 109, (R)-3-{5-[4-(3,5-dimethylpyridin-2-yl)piperazine-1-carbonyl]pyridin-2-yl}-4-methyloxazolidin-2-one 2hydrochloride], for which the “articular joint injury score” value in experiment [4] (setting [6]) was 4.1 ± 0.4.

(Values after US8354401B2, “Oxazolidinone amide aromatic compounds for supressing MMP-9 production” (Mitsubishi Tanabe Pharma Corporation, priority 2008, dated 2013).)
